Data from patent US12441706B2, “Protein degradation agent compound preparation method and application” (SHANGHAI JEMINCARE PHARMACEUTICALS CO., LTD., priority 2019, dated 2025).

How the values were obtained:
[1] = tested on: human prostate cancer VCaP cell subcutaneous xenograft tumor; experiment: In vivo pharmacodynamic study, human prostate cancer VCaP cell subcutaneous xenograft tumor CB17 SCID mouse model; settings: for tumor growth inhibition rate (TGI): castrated CB17 SCID mice, 24th day after administration
Protocol: Experimental animal: male mice of CB17 SCID strain, aged 6-8 weeks, weighing 18-22 grams, supplier: Beijing Weitong Lihua Laboratory Animal Technology Co., Ltd. Shanghai Branch, animal certificate number: 20170011005577. Animals were reared in the experimental environment for 7 days after arrival and the experiment was started.
Experimental method: Human prostate cancer cell VCaP cells (ATCC-CRL-2876) were cultured in vitro in monolayer, and the culture conditions were DMEM medium with 20% fetal bovine serum, 100 U/mL penicillin and 100 μg/mL streptomycin, cultured in a 5% CO2 incubator at 37° C. Conventional digestion with trypsin-EDTA was performed twice a week for passage. When the cell saturation was 80%-90% and the number reached the requirement, the cells were collected, counted, and inoculated. 0.2 mL (10× 10^6 cells+Matrigel) VCaP cells were subcutaneously inoculated into the left upper limb of each mouse, and castration was performed 33 days after cell inoculation. When the average tumor volume reached 119 mm^3, the drugs were administered in groups, and the doses of compound 14 were set to four groups: 1 mg/kg, 3 mg/kg, 10 mg/kg and 30 mg/kg.
Daily observation of experimental animals: the health status and death of animals were monitored every day. Routine examinations included observing the effects of tumor growth and drug treatment on the daily behavior of animals, such as behavioral activities, food and water intake (visual observation only), and weight changes (body weight measured three times a week), physical signs or other abnormal conditions.
Tumor measurements and experimental indicators: Experimental indicators were to examine whether tumor growth was inhibited, delayed or cured. Tumor diameters were measured with vernier calipers three times a week.
The calculation formula of tumor volume is: V=0.5a×b2, where a and b represented the long diameter and short diameter of the tumor, respectively. The antitumor effect of the compound was evaluated by TGI (%) or relative tumor proliferation rate T/C (%). TGI (%), reflecting the tumor growth inhibition rate. Calculation of TGI (%): TGI (%)=[1−(average tumor volume at the end of administration of a certain treatment group−average tumor volume at the beginning of administration of the treatment group)/(average tumor volume at the end of treatment in the vehicle control group−average tumor volume at the beginning of treatment in the vehicle control group)]×100%. Relative tumor proliferation rate T/C (%): the calculation formula is as follows: T/C %=TRTV/CRTV×100% (TRTV: RTV in the treatment group; CRTV: RTV in the negative control group). The relative tumor volume (RTV) was calculated according to the results of tumor measurement, and the formula is RTV=Vt/V0, where V0 is the average tumor volume measured at the time of group administration (i.e. d0), and Vt is the average tumor volume at a certain measurement, and TRTV and CRTV were taken on the same day. After the experiment, the tumor weight would be detected, and the percentage of T/Cweight would be calculated. Tweight and Cweight represent the tumor weight of the administration group and the vehicle control group, respectively.
Statistical analysis: Statistical analysis included the mean and standard error (SEM) of tumor volume at each time point for each group. […] T-test was used for comparison between two groups, and one-way ANOVA was used for comparison between three or more groups. […]

[2] = In vivo pharmacokinetics in mice, intravenous injection and oral administration; design: species or system mouse; settings: male CD1 mice
Protocol: In this experimental example, in vivo pharmacokinetics in mice were evaluated by intravenous injection and oral administration.
Experimental methods and conditions: Male CD1 mice, aged 6-8 weeks, all animals were free access to food and water, and were given a single dose of the compound to be tested at 1 mg/Kg by intravenous injection (solvent 5% DMSO/15% Solutol/80% Saline), at 5 min, 15 min, 30 min, 1 hr, 2 hr, 4 hr, 8 hr, 24 hr, 48 h after drug administration, or oral gavage administration of 10 mg/kg (solvent 5% DMSO/10% Solutol/85% Saline), at 15 min, 30 min, 1 hr, 2 hr, 4 hr, 6 h, 8 hr, 24 hr, 48 h after administration, blood was collected from the orbit, no less than 50 μL for each sample, heparin sodium was used for anticoagulation, and then placed on ice after collection, and centrifuged within 1 hour to separate the plasma for testing. The plasma concentration of the drug was detected by liquid tandem mass spectrometry (LC/MS/MS), and the pharmacokinetic parameters were calculated by Phoenix WinNonlin software.

[3] = mouse, intravenous administration 1 mg/kg, plasma
[4] = mouse, oral administration 10 mg/kg, plasma

Structure (SMILES): CC1(C)C(=O)N(c2ccc(C#N)c(Cl)c2)c2ccc(-c3ccc(N4CC(CN5CCN(c6ccc7c(c6)C(=O)N(C6CCC(=O)NC6=O)C7=O)CC5)C4)nc3F)cc21 (stereo not shown) [Compound 14]
- tolerance (body weight, FIG. 2) ([1]; 10 mpk and 30 mpk, CB17 SCID mice): better tolerance than Reference substance 1
- tumor growth inhibition rate (TGI) ([1]; dose 10 mpk): 96%
- tumor growth inhibition rate (TGI) ([1]; dose 30 mpk): 96%
- F ([2]; oral administration 10 mg/kg vs intravenous 1 mg/kg): 68.6%
- AUC(0-inf) [2, 3]: 10400 ng·h/mL
- clearance [2, 3]: 1.61 mL/min/kg
- half-life [2, 3]: 1220 min
- AUC(0-inf) [2, 4]: 71100 ng·h/mL
- Cmax [2, 4]: 2650 ng/mL
- half-life [2, 4]: 1070 min
